Series [1] can be described thus: Test Example B1: preservation stability of everolimus compositions and active pharmaceutical ingredient, residual everolimus by HPLC. The format is physicochemical. The conditions noted are these: light-shielded, 60° C. The protocol:
It is to be noted that, in the analysis using liquid chromatography (HPLC) in the present test examples, the measurement was carried out under the following conditions. • Measurement column: Zorbax Eclipse XDB-C18, Rapid resolution HT, 100 mm ×4.6 mm, L8 μm • Detector: ultraviolet absorption spectrophotometer (measurement wavelength: 278 nm) • Column temperature: 45° C. • Mobile phase A: 0.1% formic acid; mobile phase B: methanol/acetonitrile=50/50 • Concentration gradient of mobile phase:
The pharmaceutical compositions obtained by the methods of Example B1 and Comparative Examples B1 to B4 (approximately 1 g each) and the active pharmaceutical ingredient of everolimus (100 mg) were each collected in a brown sample bottle, and were then preserved under light-shielded conditions at 60° C., in a desiccator, the humidity of which had been adjusted with a saturated cobalt chloride aqueous solution (relative humidity: approximately 49%), while the bottle was uncapped.
The residual amounts of everolimus 10 days and 14 days after initiation of the preservation test were measured by liquid chromatography (HPLC), and the residual percentages of everolimus at individual time points were then calculated. It is to be noted that the residual percentage was calculated according to the following formula. The results are shown in Table 5. • Residual percentage (%) of everolimus (peak area of everolimus measured by HPLC at each time point/weighed value of powders)/(peak area of everolimus measured by HPLC before preservation (initial)/weighed value of powders)× 100.

The conditions of series [2]: cited from earlier work.

Each structure is given as a SMILES string.

In the case of `CO[C@H]1C[C@@H]2CC[C@@H](C)[C@@](O)(O2)C(=O)C(=O)N2CCCC[C@H]2C(=O)O[C@H]([C@H](C)C[C@@H]2CC[C@@H](OCCO)[C@H](OC)C2)CC(=O)[C@H](C)/C=C(\C)[C@@H](O)[C@@H](OC)C(=O)[C@H](C)C[C@H](C)/C=C/C=C/C=C/1C` [40-O-(2-hydroxyethyl)rapamycin], in series [1] (relative humidity approximately 49%), the “decomposition reaction such as oxidation on preservation (in words)” value was “rapidly progresses”. In addition, the “Residual percentage (%) of everolimus, Value on Day 10” value in series [1] (relative humidity approximately 49% (saturated cobalt chloride), uncapped, Day 10) is listed as 5%. In addition, the “Residual percentage (%) of everolimus, Value on Day 14” value in series [1] (relative humidity approximately 49% (saturated cobalt chloride), uncapped, Day 14) is recorded as 2%.

Regarding `OC[C@H]1O[C@@H](O[C@H]2[C@H](O)[C@@H](O)C(O)O[C@@H]2CO)[C@H](O)[C@@H](O)[C@H]1O` (stereo partly shown) [lactose], the “critical relative humidity at 25° C.” value in series [2] was at least 95%. In the case of `OC[C@@H](O)[C@@H](O)[C@H](O)[C@H](O)CO` [mannitol], the “critical relative humidity at 25° C.” value in series [2] is at least 95%. For the molecule `OC[C@@H](O)[C@@H](O)[C@H](O)[C@@H](O)CO` [sorbitol], the “critical relative humidity at 25° C.” value in series [2] is given as “approximately 70%”.

`OC[C@H]1O[C@H](O[C@H]2O[C@H](CO)[C@@H](O)[C@H](O)[C@H]2O)[C@H](O)[C@@H](O)[C@@H]1O` [trehalose]: the “critical relative humidity at 25° C.” value in series [2] is at least 95%.

These data come from US20180214423A1, “PHARMACEUTICAL COMPOSITION COMPRISING RAPAMYCIN OR DERIVATIVE THEREOF, AND METHOD FOR PRODUCING THE SAME” (NIPPON KAYAKU KABUSHIKI KAISHA, priority 2015, published 2018).
